Laboratory results taken from PubChem BioAssay AID256 (DTP/NCI, 2004).
“And” between values parts separate entries of the source, which are not always exact repeats. Identical values can stand only once. Toxic doses and inconclusive results are not listed.

Tested on: CD2F1 mice, L1210 leukemia ip, survival T/C
Assay: NCI In Vivo Anticancer Drug Screen. Data for tumor model L1210 Leukemia (intraperitoneal) in CD2F1 (CDF1) mice
Settings: higher = longer survival
Procedure, shortened: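 Mice carrying a transplanted tumor received test compound or vehicle alone. The value is the measurement in the treated group divided by that in the vehicle-treated control group.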

[1] = endpoint: mean survival time, dose: 100.0 mg/kg/injection, schedule: Q04DX003 (ip), vehicle: saline sonified
[2] = endpoint: mean survival time, dose: 200.0 mg/kg/injection, schedule: Q04DX003 (ip), vehicle: saline sonified
[3] = endpoint: mean survival time, dose: 400.0 mg/kg/injection, schedule: Q04DX003 (ip), vehicle: saline sonified
[4] = endpoint: mean survival time, dose: 100.0 mg/kg/injection, schedule: Q01DX009 (ip), vehicle: saline with Tween-80
[5] = endpoint: mean survival time, dose: 100.0 mg/kg/injection, schedule: Q04DX003 (ip), vehicle: saline with Tween-80
[6] = endpoint: mean survival time, dose: 200.0 mg/kg/injection, schedule: Q01DX009 (ip), vehicle: saline with Tween-80
[7] = endpoint: mean survival time, dose: 200.0 mg/kg/injection, schedule: Q04DX003 (ip), vehicle: saline with Tween-80
[8] = endpoint: mean survival time, dose: 400.0 mg/kg/injection, schedule: Q01DX009 (ip), vehicle: saline with Tween-80
[9] = endpoint: mean survival time, dose: 400.0 mg/kg/injection, schedule: Q04DX003 (ip), vehicle: saline with Tween-80
[10] = endpoint: mean survival time, dose: 100.0 mg/kg/injection, schedule: Q04DX003 (ip), vehicle: Klucel (hydroxypropylcellulose) (HPC)
[11] = endpoint: mean survival time, dose: 200.0 mg/kg/injection, schedule: Q04DX003 (ip), vehicle: Klucel (hydroxypropylcellulose) (HPC)
[12] = endpoint: mean survival time, dose: 400.0 mg/kg/injection, schedule: Q04DX003 (ip), vehicle: Klucel (hydroxypropylcellulose) (HPC)
[13] = endpoint: mean survival time, dose: 100.0 mg/kg/injection, schedule: Q04DX002 (ip), vehicle: saline with Tween-80
[14] = endpoint: mean survival time, dose: 200.0 mg/kg/injection, schedule: Q04DX002 (ip), vehicle: saline with Tween-80
[15] = endpoint: mean survival time, dose: 400.0 mg/kg/injection, schedule: Q04DX002 (ip), vehicle: saline with Tween-80

SMILES: Cc1ccccc1Nc1cc(=O)[nH]c(=O)[nH]1
- T/C (endpoint: mean survival time, dose: 100.0 mg/kg/injection, schedule: Q01DX001 (ip), vehicle: saline with Tween-80): 95 % of control
- T/C (endpoint: mean survival time, dose: 200.0 mg/kg/injection, schedule: Q01DX001 (ip), vehicle: saline with Tween-80): 95 % of control
- T/C (endpoint: mean survival time, dose: 400.0 mg/kg/injection, schedule: Q01DX001 (ip), vehicle: saline with Tween-80): 94 % of control

SMILES: CC(C)OC(=O)Nc1ccccc1Cl
- T/C [1]: 92 % of control
- T/C [2]: 94 % of control
- T/C [3]: 94 % of control

SMILES: CC1(C)/C(=C/c2ccccc2)C(=O)c2ccccc21
- T/C [4]: 100 % of control
- T/C [5]: 102 % of control
- T/C [6]: 100 % of control
- T/C [7]: 92 % of control
- T/C [8]: 94 % of control
- T/C [9]: 102 % of control

SMILES: O=C(O)CO.[NH2-].[NH2-].[Pt+2]
- T/C (endpoint: median survival time, dose: 20.0 mg/kg/injection, schedule: Q04DX003 (ip), vehicle: saline): 192 % of control and 238 % of control
- T/C (endpoint: median survival time, dose: 40.0 mg/kg/injection, schedule: Q04DX003 (ip), vehicle: saline): 182 % of control and 340 % of control
- T/C (endpoint: median survival time, dose: 80.0 mg/kg/injection, schedule: Q04DX003 (ip), vehicle: saline): 98 % of control and 102 % of control

SMILES: CSc1nc(NC2OC(CO)C(O)C(O)C2O)cc(=O)n1C (stereo unspecified)
- T/C (endpoint: median survival time, dose: 12.5 mg/kg/injection, schedule: Q01DX005 (ip), vehicle: saline): 102 % of control
- T/C (endpoint: median survival time, dose: 25.0 mg/kg/injection, schedule: Q01DX005 (ip), vehicle: saline): 100 % of control
- T/C (endpoint: median survival time, dose: 50.0 mg/kg/injection, schedule: Q01DX005 (ip), vehicle: saline): 102 % of control
- T/C (endpoint: median survival time, dose: 100.0 mg/kg/injection, schedule: Q01DX005 (ip), vehicle: saline): 102 % of control
- T/C (endpoint: median survival time, dose: 200.0 mg/kg/injection, schedule: Q01DX005 (ip), vehicle: saline): 100 % of control

SMILES: CC(=O)OCc1cc(C(C)(C)C)c(O)c(C(C)(C)C)c1
- T/C [10]: 101 % of control
- T/C [11]: 116 % of control
- T/C [12]: 115 % of control

SMILES: c1ccc(OCC2CO2)c(OCC2CO2)c1 (stereo unspecified)
- T/C (endpoint: median survival time, dose: 25.0 mg/kg/injection, schedule: Q01DX009 (ip), vehicle: saline with Tween-80): 110 % of control and 111 % of control
- T/C (endpoint: median survival time, dose: 50.0 mg/kg/injection, schedule: Q01DX009 (ip), vehicle: saline with Tween-80): 113 % of control and 117 % of control
- T/C (endpoint: median survival time, dose: 200.0 mg/kg/injection, schedule: Q01DX009 (ip), vehicle: saline with Tween-80): 153 % of control and 168 % of control
- T/C (endpoint: median survival time, dose: 400.0 mg/kg/injection, schedule: Q01DX009 (ip), vehicle: saline with Tween-80): 104 % of control

SMILES: COc1ccc(OC)c(NC(=O)Nc2cc(Cl)c(OC)cc2OC)c1
- T/C [4]: 87 % of control
- T/C (endpoint: mean survival time, dose: 178.0 mg/kg/injection, schedule: Q01DX009 (ip), vehicle: saline with Tween-80): 97 % of control
- T/C [6]: 103 % of control
- T/C (endpoint: mean survival time, dose: 266.0 mg/kg/injection, schedule: Q01DX009 (ip), vehicle: saline with Tween-80): 95 % of control
- T/C (endpoint: mean survival time, dose: 600.0 mg/kg/injection, schedule: Q01DX009 (ip), vehicle: saline with Tween-80): 95 % of control

SMILES: O=C(O)Cc1c(Cl)n(-c2ccccc2)c2ccccc12
- T/C (endpoint: mean survival time, dose: 25.0 mg/kg/injection, schedule: Q04DX003 (ip), vehicle: saline with Tween-80): 96 % of control
- T/C (endpoint: mean survival time, dose: 50.0 mg/kg/injection, schedule: Q04DX003 (ip), vehicle: saline with Tween-80): 102 % of control
- T/C [5]: 104 % of control

SMILES: O=S(=O)(Nc1c(Cl)c(Cl)c(NS(=O)(=O)c2ccccc2)c(Cl)c1Cl)c1ccccc1
- T/C [10]: 98 % of control
- T/C [11]: 91 % of control
- T/C [12]: 103 % of control

SMILES: Nc1ccc(N)c(N)n1
- T/C (endpoint: mean survival time, dose: 6.25 mg/kg/injection, schedule: Q01DX009 (ip), vehicle: saline sonified): 105 % of control
- T/C (endpoint: mean survival time, dose: 12.5 mg/kg/injection, schedule: Q01DX009 (ip), vehicle: saline sonified): 96 % of control
- T/C (endpoint: mean survival time, dose: 25.0 mg/kg/injection, schedule: Q01DX009 (ip), vehicle: saline sonified): 108 % of control

SMILES: CCOc1ccccc1NC(=O)c1ccc(Cl)cc1
- T/C [5]: 97 % of control
- T/C [7]: 100 % of control
- T/C [9]: 103 % of control

SMILES: Cc1ccc(C#CC(C)(C)O)cn1
- T/C [4]: 94 % of control
- T/C [6]: 102 % of control
- T/C [8]: 122 % of control

SMILES: COC(=O)c1ccc(N=NN(C)COC(C)=O)cc1
- T/C (endpoint: median survival time, dose: 15.0 mg/kg/injection, schedule: Q01DX005 (ip), vehicle: Klucel (hydroxypropylcellulose) (HPC)): 109 % of control
- T/C (endpoint: median survival time, dose: 30.0 mg/kg/injection, schedule: Q01DX005 (ip), vehicle: Klucel (hydroxypropylcellulose) (HPC)): 113 % of control
- T/C (endpoint: median survival time, dose: 60.0 mg/kg/injection, schedule: Q01DX005 (ip), vehicle: Klucel (hydroxypropylcellulose) (HPC)): 114 % of control
- T/C (endpoint: median survival time, dose: 240.0 mg/kg/injection, schedule: Q01DX005 (ip), vehicle: Klucel (hydroxypropylcellulose) (HPC)): 182 % of control

SMILES: C=C(N=[N+]=[N-])c1ccccc1
- T/C (endpoint: mean survival time, dose: 12.5 mg/kg/injection, schedule: Q01DX009 (ip), vehicle: other): 110 % of control
- T/C (endpoint: mean survival time, dose: 25.0 mg/kg/injection, schedule: Q01DX009 (ip), vehicle: other): 100 % of control
- T/C (endpoint: mean survival time, dose: 50.0 mg/kg/injection, schedule: Q01DX009 (ip), vehicle: other): 100 % of control
- T/C (endpoint: mean survival time, dose: 100.0 mg/kg/injection, schedule: Q01DX009 (ip), vehicle: other): 102 % of control

SMILES: O=[N+]([O-])c1cccc(S(=O)(=O)Oc2ccc(-c3ccccc3)cc2)c1
- T/C [4]: 87 % of control
- T/C [6]: 91 % of control
- T/C [8]: 89 % of control

SMILES: Cc1nc(C)c(CCO)c(=O)[nH]1
- T/C [5]: 97 % of control
- T/C [7]: 101 % of control
- T/C [9]: 103 % of control

SMILES: Cc1ccccc1S(=O)(=O)N(C)C
- T/C [1]: 97 % of control
- T/C [2]: 94 % of control
- T/C [3]: 92 % of control

SMILES: Cc1cccc(Cl)c1NC(=O)/C=C/c1ccccc1
- T/C [13]: 87 % of control
- T/C [14]: 94 % of control
- T/C [15]: 105 % of control

SMILES: Cc1cc(C)nc(NC(=S)N/N=C/c2ccccn2)n1
- T/C [13]: 98 % of control
- T/C [14]: 98 % of control
- T/C [15]: 106 % of control

SMILES: Nc1c(-c2ncc[nH]2)ncn1C1OC(CO)C(O)C1O (stereo unspecified)
- T/C [13]: 109 % of control
- T/C [14]: 97 % of control
- T/C [15]: 102 % of control

SMILES: CCOC(=O)CN(C=O)C1c2ccccc2-c2ccccc21
- T/C [5]: 99 % of control
- T/C [7]: 92 % of control
- T/C [9]: 97 % of control

SMILES: C=CC1CN2CCC1CC2C(O)c1ccnc2ccc(OC)cc12 (stereo unspecified) (tested in a mixture with another compound)
- T/C (endpoint: mean survival time, dose: 50.0 mg/kg/injection, schedule: Q01DX009 (ip), vehicle: saline with Tween-80): 92 % of control and 95 % of control
- T/C (endpoint: mean survival time, dose: 100.0 mg/kg/injection, schedule: Q01DX001 (ip), vehicle: saline): 95 % of control and 89 % of control
- T/C [4]: 103 % of control and 98 % of control
- T/C [5]: 99 % of control and 93 % of control
- T/C (endpoint: mean survival time, dose: 200.0 mg/kg/injection, schedule: Q01DX001 (ip), vehicle: saline): 96 % of control
- T/C [6]: 88 % of control and 95 % of control
- T/C [7]: 92 % of control and 90 % of control
- T/C (endpoint: mean survival time, dose: 400.0 mg/kg/injection, schedule: Q01DX001 (ip), vehicle: saline): 89 % of control

SMILES: O=C(C(=O)c1ccccc1)c1ccccc1
- T/C (endpoint: mean survival time, dose: 100.0 mg/kg/injection, schedule: Q01DX009 (ip), vehicle: saline): 100 % of control
- T/C (endpoint: mean survival time, dose: 200.0 mg/kg/injection, schedule: Q01DX009 (ip), vehicle: saline): 101 % of control
- T/C (endpoint: mean survival time, dose: 400.0 mg/kg/injection, schedule: Q01DX009 (ip), vehicle: saline): 108 % of control

SMILES: C#CCO
- T/C (endpoint: mean survival time, dose: 12.0 mg/kg/injection, schedule: Q04DX003 (ip), vehicle: saline): 94 % of control
- T/C (endpoint: mean survival time, dose: 25.0 mg/kg/injection, schedule: Q04DX003 (ip), vehicle: saline): 97 % of control
- T/C (endpoint: mean survival time, dose: 50.0 mg/kg/injection, schedule: Q04DX003 (ip), vehicle: saline): 103 % of control

SMILES: CC(=O)Nc1nc(Br)c2ccccc2c1-c1ccc(N(CCO)CCO)cc1
- T/C (endpoint: mean survival time, dose: 25.0 mg/kg/injection, schedule: Q04DX003 (ip), vehicle: DMSO): 90 % of control
- T/C (endpoint: mean survival time, dose: 50.0 mg/kg/injection, schedule: Q04DX003 (ip), vehicle: DMSO): 90 % of control
- T/C (endpoint: mean survival time, dose: 100.0 mg/kg/injection, schedule: Q04DX003 (ip), vehicle: DMSO): 94 % of control
- T/C (endpoint: mean survival time, dose: 200.0 mg/kg/injection, schedule: Q04DX003 (ip), vehicle: DMSO): 87 % of control

SMILES: COc1cc(-c2ccncc2)nc(OC)n1
- T/C [13]: 96 % of control
- T/C [14]: 88 % of control
